Source: US12667584B2, “Adenosine analog and its use in regulating the circadian clock” (NATIONAL INSTITUTE OF BIOLOGICAL SCIENCES, BEIJING, priority 2017, dated 2026)
Entries after “also recorded” stand apart in the source; their conditions may differ.

What was measured:
C57BL/6j mice = assay: Wheel running jet-lag experiment, 8 h phase advance or delay; format: in vivo, mouse
Description: Wheel running experiment: Male C57Bj/6 mice at 7 w old were purchased from the Nanjing Biomedical Research Institute of Nanjing University introduced from Jackson Laboratory, housed in individually wheel-running cage in a temperature- and humidity-controlled SPF facility, with ad libitum access to food and water. The animals were entrained under 12 h light/dark photoperiod for two weeks to synchronize the endogenous circadian clock of the mice to the ambient light-dark cycle, light intensity is about 50˜100 lux. After synchronization, light-dark cycles were 8-hr phase-advanced or phase-delayed. On the day of light-dark cycle was shifted advance, mice were firstly fasted at CT 3, then 15 mg/kg bw CA03, 15 and 30 mg/kg bw pro-CA03, 15 and 30 mg/kg bw pro-CA04 or DMSO were intraperitoneal injection at CT 12, and light on time (CT 0) was shifted from 7 am to 11 pm), finally re-feed and inject drug again at CT 23 of the old light-dark cycle. CA03 and pro-CA04 were firstly dissolved in DMSO to the concentration of 200 μg/μl, then dilute with saline to the final concentration of 1000 μg/ml for intraperitoneal injection. Pro-03 was firstly dissolved in DMSO to the concentration of 200 μg/μl, then dilute with 2% tween80 (in sterilized water) to the final concentration of 1000 μg/ml for intraperitoneal injection. On the day of light-dark cycle was shifted delayed, mice were firstly fasted at ZT 3, then 15 mg/kg bw CA03, 15 and 30 mg/kg bw pro-CA03, 15 and 30 mg/kg bw pro-CA04 or DMSO were intraperitoneal injection at CT 12, and light off time (CT12) was shifted from […] to 3 am), finally re-feed and inject drug again at CT 23 of the old light-dark cycle. Locomotor activity was recorded in 10-min bins wheel running (Actimetrics), and the data obtained were analysed with Clocklab software (Actimetrics). All animal experimental procedures were performed in accordance with the protocol approved by the Institutional Animal Care and Usage Committee (IACUC) of the National Institute of Biological Sciences, Beijing.
Under a standard jet-lag protocol {Yamaguchi, 2013}, wild-type C57BL/6j mice usually take ˜10 d to adapt to 8 h phase advance. […] Similarly, the drug treated mice adapt faster to the phase delay (FIG. 2D&2E).
To test whether cordycepin function in vivo, we firstly tested luciferase signal level by live imaging of Per2:LUC mice after intraperitoneal injection of 15 mg/kg cordycepin or DMSO. We found cordycepin induce more than 4 folds increase of luciferase signal in liver when compared with DMSO control (A). […] We also reconfirmed endogenous transcription rate of core clock genes by measuring the pre-mRNA with qPCR in the liver (B). We examined RRE genes (including Bmal1, Clock, Npas2, Cry1 and Nfil3), internal control genes (including Gapdh, Tbp and Actin) and E-box genes (including Per1, Per2, Dbp and Nr1d1). We designed at least 2 primers for each gene. […] Prior evaluation the jet-leg cure ability of cordycepin, we detected whether cordycepin and it's prodrug pro-CA03 can penetrate BBB. We injected cordycepin or pro-CA03 via tail vein and time course sampled CSF and analyzed cordycepin pro-CA03 level with HPLC-MASS method. […] Finally we evaluated the jet-leg cure ability of cordycepin, pro-CA03 and Pro-CA04 with mice behavioral experiment. Wild-type C57BL/6j mice typically take ˜10 days to adapt to an 8 h phase advance. […]

SCN culture slice = assay: Ex vivo SCN slice culture from Per2::LUC mice, lumicycle; format: cell-based, mouse
Text: Tissue culture, drug treatment and Real-Time Monitoring of Circadian Oscillations: 8 week-old male mPer2 Luciferase knockin mice were Sacrificed cervical dislocation. Then wipe the skin and neck with cotton containing 70% ethanol in a sterile hood. For SCN slice culture, firstly remove the eye balls from the head with scissors, decapitate and cut the skin. Then open the skull, remove all bone until the olfactory bulbs can be seen, cut the optic nerve between the olfactory bulbs and the hemispheres, and finally harvest the whole brain into ice cold HBSS. Trim the brain in HBSS by removing the cerebellum and olfactory bulbs. Attach the brain to a sample tray by glue with the rostral tip upwards and ventral surface closest to the cutting blade, then immediately fill the tray with ice cold HBSS and set the tray to the vibratome. Set the vibratome frequency at the maximum and the speed to the medium. To reach the SCN area quickly, the start cutting off thicker sections should be 500-800 μm. Reduce the sections thicker to 100 μm when the optic chiasm becomes wider. When the two SCN nuclei start to appear, collect the slice with transfer pipettes and check slices under dissecting microscope. […] Data was extract and analyzed with LumiCycle Analysis software. […]

[1] = Sleep phenotype by locomoter activity and electrophysiological recording; conditions: in vivo
Text: This is considered as a positive side-effect to adapt to jet-lag, which causes more problems on the sleep than arousal side. […] This work provide immediate and important practical applications, including use the disclosed compounds to assist humans who suffer jet-lag or shift-work can use this drug to adjust the clock-phase, and simultaneously tune the sleep-wake pattern, particularly coupled with caffeine ingestion.

For Nc1ncnc2c1ncn2[C@@H]1O[C@H](CO)C[C@H]1O [Cordycepin, 3′-deoxy-adenosine], which “adaptation time in phase-delay assay” value (C57BL/6j mice; DMSO 6 days) is on record?
The value was 3 days.

And the “adaptation time to 8 h phase advance” value (C57BL/6j mice; twice injection, DMSO ~10 d)?
Its value is 4 days.

What about the “clock phase of SCN slice” value (SCN culture slice) of the same compound?
Its value is “significant phase-shift with lower amplitude; also recorded: totally antiphase”.

And the sleep phenotype [1]?
The sleep phenotype was “leads to a sleep phenotype”.
